Data on 6 molecules can be found in patent US9586959B2, “Substituted tricyclic heterocycles as histamine 4 receptor inhibitors” (C&C RESEARCH LABORATORIES, priority 2011, dated 2017).

In brackets after ≈: the same amount, converted by molar mass.

Data set [1] can be described thus: Metabolic stability in mouse microsome. The following applies: mouse microsome 1 mg/mL, 5 μM compound, 1 mM NADPH.
Data set [2] is described as follows: Mouse pharmacokinetics (oral). The following applies: plasma, 50 mg/kg, ICR mouse, 5 mg/mL solution at 10 mL/kg; for AUC(0-inf): read-out: Mouse pharmacokinetics AUCinf; for half-life: read-out: Mouse pharmacokinetics t1/2 (converted). It counts as in vivo. As for the experimental part: (§1) The weight of each ICR mouse and SD rat was properly 20˜30 g and 200˜300 g, and dosage of the compound of the present invention was 10 mL/kg for mice and 5 mL/kg for rats, and administered orally using Zonde. Blood collection was performed at 0.25, 0.5, 1, 2, 4, 6, 8 and 24 hours by orbital venous blood collection using a capillary tube coated with an anticoagulant, and then plasma was isolated using a centrifuge and kept in a freezer.
(§2) Plasma collected from animals and standard concentration material were pretreated using solid-phase extraction, and concentration of the compound of the invention was determined using a liquid chromatography mass spectrometer (Agilent HPLC, API-3000).
(§3) According to the resulting concentration value, the pharmacokinetics parameter was found using WinNonlin (Version 6.2) and half-life (t1/2), maximum blood concentration (Cmax) and infinite area under the curve (AUCinf) are shown in Tables 6 and 7 below.

For data set [3], the system named is compound 48/80-induced itching, ICR mice. Description: Compound 48/80-induced itching model in ICR mice. It counts as in vivo. The following applies: 50 mg/kg oral, compound 48/80 100 μg intradermal, 20 min count. As for the experimental part:
Female, ICR mice (8 weeks old) were purchased from OrientBio Co., Ltd. The animals were housed under conditions of controlled temperature (23±3° C.), humidity (50±5%) and lighting with food and water available ad libitum.
The hair was clipped using clippers (8000AD, THRIVE) over the rostral part of the back 24 hours before the experiment under anesthesia with isoflurane. Compound 48/80 (100 μg) were dissolved in saline and a volume of 40 μL injected intradermally into the rostral part of the back. Mice were dosed by orally with either vehicle (20% cyclodextrin in second distilled water) or the compound by orally administration. The Compound (50 mg/kg) dissolved in a vehicle (20% cyclodextrin in second distilled water) and administered orally at a volume of 10 mL/kg.
Mice (n=8-10 per group) were divided into 3 groups (normal group, control group and experimental group). The animals were randomized for similar body weight distribution. A vehicle or the compound was administered 20 minutes before injection of compound 48/80 or saline. Immediately after intradermal injection, the animals were returned to an acrylic cage (approximately 30×30×30 cm, access production) composed of four cells, to which they had been acclimated for at least 1 hour before the experiment, for observation of itch responses. A camera (Samsung, VLUUNV30) was positioned above the mice to record their response. Itch was measured by blinded counting of the number of bouts in the 20 min period immediately after the intradermal injection. A number of scratching was defined as 3 or more individual rapid scratch movements with the hind paws around the injection site (J. Pharmacol. Sci. 2006, 100, 285-288; European J. of Pharmacol. 2002, 448, 175-183). All data were analyzed by using Excel and Prism, and all values are expressed as the mean±S.E.M. The inhibitory effect of compounds is shown as a percentage of the maximal response to histamine (100% control group). Statistical analysis was analyzed using one-way ANOVA with Dunnett test. Values of p<0.05 were considered statistically significant.

Data set [4] in a line: Solubility in artificial gastrointestinal tract solution. The following applies: artificial gastrointestinal tract solution, thermodynamic from solid; for solubility at 1 h: fassgf or other biorelevant, first solution pH 1.2, 2 mg/mL sample, 37° C. 1 hour; for solubility at 2 h: fassif, second solution pH 6.5, 2 mg/mL sample, 37° C. 2 hours. It counts as physicochemical. Summed up:
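Two media were used: pH 1.2 NaCl/HCl with Triton X-100, and pH 6.5 phosphate buffer with sodium taurocholate and lecithin. Heated sample solutions were filtered to remove undissolved compound, diluted 1:1 with CH3CN, and solubility was measured by liquid chromatography.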

Data set [5] is described as follows: Metabolic stability in human microsome. Particulars: for Metabolic stability (CLh. int), Human: human microsome 1 mg/mL, 5 μM compound, 1 mM NADPH.
The nature of data set [6]: Rat pharmacokinetics (oral). The following applies: plasma, 10 mg/kg, SD rat, 2 mg/mL solution at 5 mL/kg; for AUC(0-inf): read-out: Rat pharmacokinetics AUCinf; for half-life: read-out: Rat pharmacokinetics t1/2 (converted). It counts as in vivo. The method, then:
as §1, §2, §3

For data set [7], the system named is histamine-induced mast cell migration (trachea). Description: Histamine-induced mast cell migration. Particulars: 20 mg/kg oral, 0.1 M histamine aerosol, 2 days. It counts as in vivo, Balb/c mice. The method, then: Female, Balb/c mice (7 weeks old, 20±3 g) were purchased from OrientBio Co., Ltd.
The animals were housed under conditions of controlled temperature (23±3° C.), humidity (50±5%) and lighting with food and water available ad libitum.
Mice were dosed with either vehicle (20% cyclodextrin in second distilled water) or the compound by orally administration. The Compound (20 mg/kg) dissolved in a vehicle and administered orally at a volume of 10 mL/kg. After 15 minutes, mice were challenged by a 20 min aerosol inhalation of PBS (phosphate buffered saline) or 0.1 M histamine (dissolving in PBS). This process was repeated for 2 days. After a final challenge, the tracheae were cleared of blood via perfusion of PBS and tracheae were extracted, the tracheae were fixed in 10% (w/v) formaldehyde for subsequent paraffin cross-sectioning and toluidine blue staining. Total mast cells were calculated, and a mean was reported. (The Journal of Pharmacology and Experimental Therapeutics, 2004, 309, 404-413). Statistical analysis was analyzed using one-way ANOVA with Dunnett test. Values of p<0.05 were considered statistically significant.

For the molecule `CNC1CN(c2nc3ncc(Cl)cc3n3cnnc23)C1` [Compound 18, 1-(8-Chloropyrido[2,3-e][1,2,4]triazolo[4,3-a]pyrazin-4-yl)-N-methylazetidin-3-amine], the “Metabolic stability (CLh. int), Mouse” value in data set [1] worked out at 1760 µL/min/mg. In addition, in data set [2], the peak level (Cmax) was 12300 ng/mL, the AUC(0-inf) was determined as 23700 ng·h/mL and the half-life is 1.32 h. Further, the “Number of scratching (% change from control group)” value in data set [3] is reported as 50.9^1%. Moreover, in data set [4], the solubility at 1 h was determined as 1590 µg/mL (≈ 5.5 mM) and the solubility at 2 h stood at 791 µg/mL (≈ 2.73 mM). The “Metabolic stability (CLh. int), Human” value in data set [5] stood at 4200 µL/min/mg. In data set [6], the Cmax was determined as 2590 ng/mL, the AUC(0-inf) is 4560 ng·h/mL and the half-life is 1.04 h.
With `CN1CCN(c2nc3ncc(Cl)cc3n3cnnc23)CC1` [Compound 4, 8-Chloro-4-(4-methylpiperazin-1-yl)pyrido[2,3-e][1,2,4]triazolo[4,3-a]pyrazine], the “Metabolic stability (CLh. int), Mouse” value in data set [1] was determined as 10220 µL/min/mg. Besides, in data set [2], the highest level (Cmax) was 14900 ng/mL, the AUC(0-inf) was 35600 ng·h/mL and the half-life was 2.21 h. Also, the “Mast cell migration (% change from control group)” value in data set [7] is given as 70.3^1%. For the same molecule, the “Number of scratching (% change from control group)” value in data set [3] is given as 49.6^1%. For the same molecule, in data set [4], the solubility at 1 h came out at 2010 µg/mL (≈ 6.61 mM) and the concentration in solution (solubility at 2 h) came to 1240 µg/mL (≈ 4.09 mM). Besides, the “Metabolic stability (CLh. int), Human” value in data set [5] is 2200 µL/min/mg. In data set [6], the concentration peaked (Cmax) at 1950 ng/mL, the AUC(0-inf) was found to be 7740 ng·h/mL and the half-life was 1.88 h.
Take `Clc1cnc2nc(N3CCNCC3)c3nncn3c2c1` [Compound 7, 8-Chloro-4-(piperazin-1-yl)pyrido[2,3-e][1,2,4]triazolo[4,3-a]pyrazine]: the “Metabolic stability (CLh. int), Mouse” value in data set [1] was 6900 µL/min/mg. In data set [2], the Cmax worked out at 6570 ng/mL, the AUC(0-inf) was determined as 16500 ng·h/mL and the half-life was 1.28 h. The “Mast cell migration (% change from control group)” value in data set [7] is reported as 43.1^1%. In data set [4], the solubility at 1 h turned out to be 1370 µg/mL (≈ 4.74 mM) and the concentration in solution (solubility at 2 h) was 1150 µg/mL (≈ 3.97 mM). For the same molecule, the “% remaining in 30 minutes” value in data set [5] (human microsome, 30 minutes) is “NC^y: Not calculable (99.8% remaining in 30 minutes)”. In data set [6], the highest level (Cmax) was 1330 ng/mL, the AUC(0-inf) came out at 3110 ng·h/mL and the half-life was 1.62 h.
Turning to `CNC1CN(c2nc3ncc(Br)cc3n3cnnc23)C1` [Compound 24, 1-(8-Bromopyrido[2,3-e][1,2,4]triazolo[4,3-a]pyrazin-4-yl)-N-methylazetidin-3-amine], in data set [1], the “Metabolic stability (CLh. int), Mouse” value came to 3050 µL/min/mg. Moreover, in data set [2], the Cmax stood at 18900 ng/mL, the AUC(0-inf) came to 32200 ng·h/mL and the half-life was 0.96 h. The “Mast cell migration (% change from control group)” value in data set [7] is given as 60.0^1%. The “Number of scratching (% change from control group)” value in data set [3] is listed as 47.9^1%. In data set [4], the concentration in solution (solubility at 1 h) was 1690 µg/mL (≈ 5.06 mM) and the solubility at 2 h was 939 µg/mL (≈ 2.81 mM). For the same molecule, the “Metabolic stability (CLh. int), Human” value in data set [5] was 1330 µL/min/mg. Moreover, in data set [6], the concentration peaked (Cmax) at 2420 ng/mL, the AUC(0-inf) turned out to be 4510 ng·h/mL and the half-life was 1.3 h.
Consider `CNC1CN(c2nc3ncc(I)cc3n3cnnc23)C1` [Compound 48, 1-(8-Iodopyrido[2,3-e][1,2,4]triazolo[4,3-a]pyrazin-4-yl)-N-methylazetidin-3-amine], for which, in data set [1], the “Metabolic stability (CLh. int), Mouse” value came out at 5310 µL/min/mg. In data set [2], the maximum concentration (Cmax) came out at 10200 ng/mL, the AUC(0-inf) was found to be 21600 ng·h/mL and the half-life is 1.46 h. The “Number of scratching (% change from control group)” value in data set [3] is 30.3%. In data set [4], this molecule gave a solubility at 1 h of 1610 µg/mL (≈ 4.22 mM) and a solubility at 2 h of 677 µg/mL (≈ 1.78 mM). Besides, the “Metabolic stability (CLh. int), Human” value in data set [5] was found to be 400 µL/min/mg.
Consider `CNC1CN(c2nc3ncc(Br)cc3n3nnnc23)C1` [Compound 95, 1-(8-Bromopyrido[2,3-e]tetrazolo[1,5-a]pyrazin-4-yl)-N-methylazetidin-3-amine], for which the “Metabolic stability (CLh. int), Mouse” value in data set [1] is 18100 µL/min/mg. For the same molecule, in data set [2], the concentration peaked (Cmax) at 15400 ng/mL, the AUC(0-inf) came to 98300 ng·h/mL and the half-life was 4.03 h. Also, the “Number of scratching (% change from control group)” value in data set [3] is given as 93.6^1%. In data set [4], this molecule registered a solubility at 1 h of 1790 µg/mL (≈ 5.34 mM) and a solubility at 2 h of 1130 µg/mL (≈ 3.36 mM). Moreover, in data set [5], the “Metabolic stability (CLh. int), Human” value was 5500 µL/min/mg.

As usually defined, the Cmax is the peak of the concentration-time curve. As usually defined, the solubility is the dissolved amount per volume that the medium holds. A higher solubility goes with much dissolved substance.
